US8846739B2, “TGR5 agonists” (Exelixis Patent Company LLC, priority 2009, dated 2014)

Assays:
human TGR5 (h-TGR5) = biological target: T1, human TGR5 (h-TGR5) (Homo sapiens, UniProt Q8TDU6); experiment: TGR5/CRE-Luciferase Assay; format: cell-based; conditions: HEK 293 hTGR5/CRE-Luc cells, 6 hours incubation, read-out: CRE-Luc Agonist (EC50)
T1 sequence (Q8TDU6 1-330): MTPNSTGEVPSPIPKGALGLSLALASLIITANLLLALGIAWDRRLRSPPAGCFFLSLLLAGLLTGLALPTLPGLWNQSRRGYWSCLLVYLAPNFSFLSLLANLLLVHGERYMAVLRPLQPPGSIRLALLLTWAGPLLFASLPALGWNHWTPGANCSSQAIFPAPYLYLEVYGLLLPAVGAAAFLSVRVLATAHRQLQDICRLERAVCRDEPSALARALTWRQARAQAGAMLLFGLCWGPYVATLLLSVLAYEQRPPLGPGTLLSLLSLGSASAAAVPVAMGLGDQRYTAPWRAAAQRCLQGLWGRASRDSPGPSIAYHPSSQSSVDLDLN
Procedure, shortened: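 HEK 293 CRE-Luciferase cells stably expressing the receptor, plated in DMEM 18-20 h before assay, then exposed to serially diluted compounds (DMEM with 5% DMSO) for 6 h. Luciferase read-out after lysis; EC50 from dose-response.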

h-TGR5 = biological target: T2, h-TGR5 (Homo sapiens, UniProt Q8TDU6); experiment: TGR5 cAMP Assay using Cisbio cAMP Dynamic 2 htrf assay kit; format: cell-based; conditions: hTGR5CRE-luc HEK 293 cells
T2 sequence (Q8TDU6 1-330): T1 sequence (Q8TDU6 1-330)

Row | EC50 (human TGR5 (h-TGR5)) | EC50 (h-TGR5) | Compound
1 | < 100 nM | < 100 nM | COc1cc(C(C)(C)c2cnc(SCc3c(F)cc(S(=O)(=O)N(CCC[N+](C)(C)C)[C@H](C(=O)O)C(C)C)cc3F)n2-c2ccc(F)cc2)ccc1Cl [Compound 14p, 3-([(1S)-1-carboxy-2-methylpropyl]{[4-({[5-{1-[4-chloro-3-(methyloxy)phenyl]-1-methylethyl}-1-(4-fluorophenyl)-1H-imidazol-2-yl]thio}methyl)-3,5-difluorophenyl]sulfonyl}amino)-N,N,N-trimethylpropan-1-aminium]
2 | < 100 nM | < 100 nM | COc1cc(C(C)(C)c2cnc(SCc3c(F)cc(S(=O)(=O)N(CCC[N+](C)(C)C)[C@@H](C(=O)O)C(C)C)cc3F)n2-c2ccc(F)cc2)ccc1Cl [Compound 14q, 3-([(1R)-1-carboxy-2-methylpropyl]{[4-({[5-{1-[4-chloro-3-(methyloxy)phenyl]-1-methylethyl}-1-(4-fluorophenyl)-1H-imidazol-2-yl]thio}methyl)-3,5-difluorophenyl]sulfonyl}amino)-N,N,N-trimethylpropan-1-aminium]
3 | < 100 nM | < 100 nM | COc1cc(C(C)(C)c2cnc(SCc3c(F)cc(S(=O)(=O)N(C)[C@@H](CCC[N+](C)(C)C)C(=O)O)cc3F)n2-c2ccc(F)cc2)ccc1F [Compound 14e, (S)-4-carboxy-4-(3,5-difluoro-4-((5-(2-(4-luoro-3-methoxyphenyl)propan-2-yl)-1-(4-fluorophenyl)-1H-imidazol-2-ylthio)methyl)-N-methylphenylsulfonamido)-N,N,N-trimethylbutan-1-aminium chloride]
4 | < 100 nM | < 100 nM | COc1cc(C(C)(C)c2cnc(CCc3c(F)cc(S(=O)(=O)N(C)[C@@H](CCCC[N+](C)(C)C)C(=O)O)cc3Cl)n2-c2ccc(F)cc2)ccc1Cl [Compound 17o, (S)-5-carboxy-5-(3-chloro-4-(2-(5-(2-(4-chloro-3-methoxyphenyl)propan-2-yl)-1-(4-fluorophenyl)-1H-imidazol-2-yl)ethyl)-5-fluoro-N-methylphenylsulfonamido)-N,N,N-trimethylpentan-1-aminium 2,2,2-trifluoroacetate]
5 | < 100 nM | < 100 nM | CC[N+](C)(C)CCCN(C)S(=O)(=O)c1cc(F)c(CSc2ncc(C(C)(C)c3ccc(F)c(OC)c3)n2-c2ccc(F)cc2)c(Cl)c1 [Compound 14m, 3-[{[3-chloro-5-fluoro-4-({[5-{1-[4-fluoro-3-(methyloxy)phenyl]-1-methylethyl}-1-(4-fluorophenyl)-1H-imidazol-2-yl]thio}methyl)phenyl]sulfonyl} (methyl)amino]-N-ethyl-N,N-dimethylpropan-1-aminium]
6 | < 100 nM | < 100 nM | COc1cc(C(C)(C)c2cnc(SCc3c(F)cc(S(=O)(=O)N(CCC[N+](C)(C)C)C4(C(=O)O)CC4)cc3Cl)n2-c2ccc(F)cc2)ccc1Cl [Compound 14z, 3-[(1-carboxycyclopropyl){[3-chloro-4-({[5-{1-[4-chloro-3-(methyloxy)phenyl]-1-methylethyl}-1-(4-fluorophenyl)-1H-imidazol-2-yl]thio}methyl)-5-fluorophenyl]sulfonyl}amino]-N,N,N-trimethylpropan-1-aminium]
7 | < 100 nM | < 100 nM | COc1cc(C(C)(C)c2cnc(SCc3c(F)cc(S(=O)(=O)N(CCC[N+](C)(C)C)Cc4cccc(C(=O)O)c4)cc3F)n2-c2ccc(F)cc2)ccc1Cl [Compound 14v, 3-([(3-carboxyphenyl)methyl]{[4-({[5-{1-[4-chloro-3-(methyloxy)phenyl]-1-methylethyl}-1-(4-fluorophenyl)-1H-imidazol-2-yl]thio}methyl)-3,5-difluorophenyl]sulfonyl}amino)-N,N,N-trimethylpropan-1-aminium]
8 | < 100 nM | < 100 nM | COc1cc(C(C)(C)c2cnc(SCc3c(F)cc(S(=O)(=O)N(C)[C@@H](CCC[N+](C)(C)C)C(=O)O)cc3F)n2-c2ccc(F)cc2)cc(F)c1F [Compound 14f, (S)-4-carboxy-4-(4-((5-(2-(3,4-difluoro-5-methoxyphenyl)propan-2-yl)-1-(4-fluorophenyl)-1H-imidazol-2-ylthio)methyl)-3,5-difluoro-N-methylphenylsulfonamido)-N,N-trimethylbutan-1-aminium chloride]
9 | < 100 nM | < 100 nM | COc1cc(C(C)(C)c2cnc(SCc3c(F)cc(S(=O)(=O)N(C)CCC[N+](C)(C)C)cc3Cl)n2-c2ccc(F)cc2)ccc1F [Compound 12d, 3-(3-chloro-5-fluoro-4-((5-(2-(4-fluoro-3-methoxyphenyl)propan-2-yl)-1-(4-fluorophenyl)-1H-imidazol-2-ylthio)methyl)-N-methylphenylsulfonamido)-N,N,N-trimethylpropan-1-aminium 2,2,2-trifluoroacetate]
10 | < 100 nM | < 100 nM | COc1cc(C(C)(C)c2cnc(SCc3c(F)cc(S(=O)(=O)N(C)[C@@H](CCCC[N+](C)(C)C)C(=O)O)cc3F)n2-c2ccc(F)cc2)ccc1Cl [Compound 17g, (S)-5-carboxy-5-(4-((5-(2-(4-chloro-3-methoxyphenyl)propan-2-yl)-1-(4-fluorophenyl)-1H-imidazol-2-ylthio)methyl)-3,5-difluoro-N-methylphenylsulfonamido)-N,N,N-trimethylpentan-1-aminium 2,2,2-trifluoroacetate]

Further lines, the compound ahead of its results:

Row | Compound | EC50 (human TGR5 (h-TGR5)) | EC50 (h-TGR5)
11 | COc1cc(C(C)(C)c2cnc(SCc3c(F)cc(C#CC[N+](C)(C)C)cc3F)n2-c2ccc(F)cc2)ccc1Cl [Compound 18, 3-(4-((5-(2-(4-Chloro-3-methoxyphenyl)propan-2-yl)-1-(4-fluorophenyl)-1H-imidazol-2-ylthio)methyl)-3,5-difluorophenyl)-N,N,N-trimethylprop-2-yn-1-aminium 4-methylbenzenesulfonate] | < 100 nM | < 100 nM
12 | COc1cc(C(C)(C)c2cnc(SCc3c(F)cc(S(=O)(=O)N4CCC([N+](C)(C)C)CC4)cc3F)n2-c2ccc(F)cc2)ccc1Cl [Compound 11c, 1-{[4-({[5-{1-[4-chloro-3-(methyloxy)phenyl]-1-methylethyl}-1-(4-fluorophenyl)-1H-imidazol-2-yl]thio}methyl)-3,5-difluorophenyl]sulfonyl}-N,N,N-trimethylpiperidin-4-aminium] | < 100 nM | < 100 nM
13 | COc1cc(C(C)(C)c2cnc(SCc3cc(S(=O)(=O)N(CCC[N+](C)(C)C)CCC[N+](C)(C)C)c(F)cc3Cl)n2-c2ccc(F)cc2)ccc1Cl [Example 6p, 3,3′-({[4-chloro-5-({[5-{1-[4-chloro-3-(methyloxy)phenyl]-1-methylethyl}-1-(4-fluorophenyl)-1H-imidazol-2-yl]thio}methyl)-2-fluorophenyl]sulfonyl}imino)bis(N,N,N-trimethylpropan-1-aminium)] | 100 to 1000 nM | 100 to 1000 nM
14 | COc1cc(C(C)(C)c2cnc(SCc3c(F)cc(NC(=O)NCC[N+](C)(C)C)cc3Cl)n2-c2ccc(F)cc2)ccc1Cl [Example 5] | < 100 nM | < 100 nM
15 | COc1cc(C(C)(C)c2cnc(SCc3ccc(Cl)c(S(=O)(=O)NCCC[N+](C)(C)C)c3)n2-c2ccc(F)cc2)ccc1Cl [Example 6l, 3-({[2-chloro-5-({[5-{1-[4-chloro-3-(methyloxy)phenyl]-1-methylethyl}-1-(4-fluorophenyl)-1H-imidazol-2-yl]thio}methyl)phenyl]sulfonyl}amino)-N,N,N-trimethylpropan-1-aminium] | < 100 nM | < 100 nM
16 | COc1cc(C(C)(C)c2cnc(SCc3c(F)cc(S(=O)(=O)NCCC[N+](C)(C)C)cc3F)n2-c2ccc(F)cc2)ccc1F [Example 6f, 3-({[3,5-difluoro-4-({[5-{1-[4-fluoro-3-(methyloxy)phenyl]-1-methylethyl}-1-(4-fluorophenyl)-1H-imidazol-2-yl]thio}methyl)phenyl]sulfonyl}amino)-N,N,N-trimethylpropan-1-aminium] | < 100 nM | < 100 nM
17 | COc1cc(C(C)(C)c2nnc(SCc3c(F)cc(S(=O)(=O)NCCC[N+](C)(C)C)cc3F)n2-c2ccc(F)cc2)ccc1Cl [Example 6d, 3-({[4-({[5-{1-[4-chloro-3-(methyloxy)phenyl]-1-methylethyl}-4-(4-fluorophenyl)-4H-1,2,4-triazol-3-yl]thio}methyl)-3,5-difluorophenyl]sulfonyl}amino)-N,N,N-trimethylpropan-1-aminium] | < 100 nM | < 100 nM
18 | COc1cc(C(C)(C)c2cnc(SCc3c(F)cc(C(=O)NCC[N+]4(C)CCOCC4)cc3Cl)n2-c2ccc(F)cc2)ccc1Cl [Example 2j, 4-[2-({[3-chloro-4-({[5-{1-[4-chloro-3-(methyloxy)phenyl]-1-methylethyl}-1-(4-fluorophenyl)-1H-imidazol-2-yl]thio}methyl)-5-fluorophenyl]carbonyl}amino)ethyl]-4-methylmorpholin-4-ium] | 1000 to 10000 nM | 1000 to 10000 nM
19 | COc1cc(C(C)(C)c2cnc(SCc3c(F)cc(C(=O)NCC[N+]45CCN(CC4)CC5)cc3Cl)n2-c2ccc(F)cc2)ccc1F [Example 2a, 1-[2-({[3-chloro-5-fluoro-4-({[5-{1-[4-fluoro-3-(methyloxy)phenyl]-1-methylethyl}-1-(4-fluorophenyl)-1H-imidazol-2-yl]thio}methyl)phenyl]carbonyl}amino)ethyl]-4-aza-1-azoniabicyclo[2.2.2]octane] | < 100 nM | < 100 nM
